Results published in patent US6709679B2, “Antineoplastic conjugates of transferin, albumin and polyethylene glycol” (priority 1996, dated 2004).

System: mammary carcinoma MCF-7
Assay: xeno-transplantable naked-mouse model, mammary carcinoma MCF-7 s.c.
Format: in vivo, mice (Ncr:nu/nu female)
Protocol: The dose refers to the amount of doxorubicin available. […] In the case of the highest dose employed in the experiment (12 mg/kg), there appears a very high lethalness (5 of 7 and 7 of 7 animals, respectively) in the therapy with doxorubicin.

## COc1cccc2c1C(=O)c1c(O)c3c(c(O)c1C2=O)C[C@@](O)(C(=O)CO)C[C@@H]3O[C@H]1C[C@H](N)[C@H](O)[C@H](C)O1 [doxorubicin]
Dose 4 mg/kg/inj. i.v. day 16 and 23
  optimum TIC (%): 61%
Dose 8 mg/kg/inj. i.v. day 16 and 23
  optimum TIC (%): 39%
Dose 8 mg/kg/inj. i.v. day 16 and 23, number of deaths (day), 8 mice
  mortality (d): 1 (26)
Dose 12 mg/kg/inj. i.v. day 16 and 23, number of deaths (days), 7 mice
  mortality (d): 7 (25-33)
